Measured values taken from paper PMC4122495, “Small Molecule Deubiquitinase Inhibitors Promote Macrophage Anti-Infective Capacity” (PLoS ONE, 2014).
Converted amounts (≈) assume the structure as drawn. “Also recorded” adds a separate entry of the source. Like-named read-outs stand apart in the source and are kept apart here.

Tests used:
[1] = tested on: L. monocytogenes; experiment: Bacterial growth curve in BHI broth culture; assay type: cell-based, Listeria monocytogenes 10403S; details: 5 µM in BHI broth; for effect on Listeria growth in broth culture: absence of host cells, up to 8 h
Protocol: For bacterial growth curve in broth culture, an overnight culture of L. monocytogenes was back-diluted 1∶50 into BHI broth in the presence of 5 µM of compounds 1 to 4, 2.5 µM of compound 9 or equivalent volume of DMSO and incubated statically at 30°C for up to 8 h. At indicated time points (0, 2, 4, 6 and 8 h), a 50 µl-aliquot of bacteria was serially diluted and plated on LB agar to determine the number of CFU. To test the bactericidal properties of compound 9, an overnight culture of L. monocytogenes was back-diluted 1∶50 into BHI broth and allowed to grow at 37°C with shaking until an optical density at 600 nm (OD600) of ∼0.6–0.7 was obtained. Bacteria were then exposed to 1, 2.5 or 5 µM of compound 9 or equivalent volume of DMSO for 2 h at 4°C. After incubation, bacteria were serially diluted and plated on LB agar to determine CFU.

[2] = tested on: L. monocytogenes; experiment: L. monocytogenes intracellular growth assay in RAW264.7 macrophages; assay type: cell-based, Listeria monocytogenes 10403S; parameters: decrease in Listeria intracellular viability: concentration or dose not given beside the values; details: for EC50: Listeria monocytogenes, RAW264.7 pre-treated with varying concentrations, then infected (MOI 1), intracellular CFU at 8 h post-infection, non-linear regression; for decrease in Listeria intracellular viability: RAW264.7 pre-treated at each compound's working condition (Fig. 2B, 5B); for decrease in Listeria intracellular viability / effect on L.m. intracellular growth (in words) / Decrease intracellular listeria viability (%): 8 h post-infection; for decrease in Listeria intracellular viability / Decrease intracellular listeria viability (%): vs DMSO; for effect on L.m. intracellular growth (in words): RAW264.7 pre-treated with compound; for Decrease intracellular listeria viability (%): conditions of Figure 2B and Figure 5B, maximal effective drug concentration used
Protocol: RAW264.7 cells were cultured at an initial density of 4×10^6 cells per 24-well plate and allowed to adhere overnight. Macrophages were treated with 2.5 or 5 µM of DUB inhibitors dissolved in dimethyl sulfoxide (DMSO) for 0.5 or 1 h or with equivalent volume of DMSO (vehicle control) at 37°C. For dose-response curves, macrophages were incubated with 5, 2.5, 1 and 0.5 µM of compounds 1, 3 and 4 or 2.5, 2, 1 and 0.5 µM of compounds 2 and 9 for 0.5 h or 1 h at 37°C. DUB inhibitors were removed from cell culture prior to infection by changing the medium. Macrophages were infected with L. monocytogenes at a multiplicity of infection (MOI) of 1 for 0.5 h at 37°C. The inoculum was removed by washing infected cells three times with Dulbecco’s phosphate-buffered saline (PBS), and the cells were incubated in medium containing 10 µg/ml of gentamicin to kill extracellular bacteria for the duration of the experiment. At 8 h post-infection, cells were lysed in 1 ml 0.1% Triton X-100, serially diluted and plated on Luria-Bertani (LB) agar to enumerate the number of colony forming units (CFU). CFU were counted using the Acolyte SuperCount (Microbiology International, Frederick, MD) plate reader and software. Results were normalized to DMSO-treated cells.
Supplementary file pone.0104096.s001.tif: Figure S1 Dose-response curves for selected compounds. RAW264.7 cells were incubated with DMSO (equivalent volume) or the varying concentrations of WP1130-derivatives for 0.5 h (compounds 1, 2, 4 and 9) or 1 h (compound 3). After incubation, the medium was removed, and cells were infected at 37°C for 0.5 h at an MOI of 1 with L. monocytogenes in the absence of additional drugs. Following the 0.5 h infection, cells were washed and gentamycin (10 µg/ml) was added to kill extracellular bacteria. Intracellular bacteria were enumerated at 8 h post-infection. The data represent percent of Listeria intracellular growth compared to DMSO-treated cells from three independent experiments performed in triplicate. Non-linear regression curves were performed using the GraphPad Prism software. (TIF) Click here for additional data file.

[3] = tested on: RAW264.7 cells; experiment: WST-1 cell viability assay, conditions mimicking the bacterial infection protocol; assay type: cell-based, murine; details: then 8 h
Protocol: For cell viability assays in conditions that mimicked the bacterial infection protocol, RAW264.7 cells were cultured at an initial density of 4×10^6 cells per 96-well plate. Cells were treated with 2.5 or 5 µM DUB inhibitors dissolved in DMSO for 0.5 h or 1 h or with equivalent volume of DMSO. DUB inhibitors were removed after treatment by washing three times with PBS, and cells were incubated in culture media for 6.5 h at 37°C. The WST-1 reagent (Roche, San Francisco, CA), which measures mitochondrial dehydrogenase activity, was diluted 1 in 10 in media and cells were incubated at 37°C for an additional 1.5 h. The optical density at 440 nm (OD440) and 600 nm (OD600) was determined and results were normalized to DMSO-treated cells.

[4] = tested on: MNV-1; parameters: method as in PMID 22792064; details: pre-treatment of RAW264.7 cells; cited from earlier work
[5] = tested on: USP9x; parameters: method as in Donato, N. J., manuscript in preparation; details: cell-based assay; ref Donato, N. J., manuscript in preparation; read-out: IC50 against USP9x; cited from earlier work
[6] = Aqueous kinetic solubility; assay type: physicochemical; details: aqueous (not further specified)
[7] = tested on: L. monocytogenes; parameters: method as in PMID 21911458; details: absence of host cells; cited from earlier work

EC50 [2] [nM]	Compound	effect on Listeria growth in broth culture [1]	decrease in Listeria intracellular viability [2] [%]	effect on L.m. intracellular growth (in words) [2]	Decrease intracellular listeria viability (%) [2] [%]	cellular toxicity (WST-1 viability) ([3]; 5 µM, 1 h pre-treatment)	also measured
1100	CCC[C@H](NC(=O)/C(C#N)=C/c1cccc(Cl)n1)c1ccccc1 [Compound 1]	slight decrease in growth rate	54.7	Decrease L.m. intracellular growth	54.7	–	effect on total CFU per ml by 8 h in broth culture [1]: without affecting the total number of colony forming unit (CFU) per ml by 8 h
1760	CCC[C@@H](NC(=O)/C(C#N)=C/c1cccc(Br)n1)c1ccccc1 [Compound 2]	slight decrease in growth rate	44	Decrease L.m. intracellular growth	44.0	–	effect on total CFU per ml by 8 h in broth culture [1]: without affecting the total number of colony forming unit (CFU) per ml by 8 h; cellular toxicity (WST-1 viability) ([3]; pre-treatment 0.5 or 1 h, led to working concentration of 2.5 µM for 0.5 h): slight increase in toxicity
–	CCCC(NC(=O)/C(C#N)=C/c1cccc(Br)n1)c1ccc(OCOC)cc1 (centres unmarked) [Compound 3]	slight decrease in the in vitro growth	39.9	Decrease L.m. intracellular growth	39.9	no significant toxicity	–
2880	CCC[C@H](NC(=O)/C(C#N)=C/c1cccc(F)n1)c1ccccc1 [Compound 4]	no effect	29.2	Decrease L.m. intracellular growth	29.2	–	–
–	CCC(NC(=O)/C(C#N)=C/c1cccc(Br)n1)c1ccc(O)cc1 (centres unmarked) [Compound 5]	–	25.4	Decrease L.m. intracellular growth	–	no significant toxicity	–
–	CCCC(NC(=O)/C(C#N)=C/c1cccc(F)n1)c1ccc(OCCN2CCOCC2)cc1 (centres unmarked) [Compound 6]	–	–	No effect on L.m. intracellular growth	–	no significant toxicity	effect on L.m. intracellular growth (in words) ([2]; listed as compound 6): no significant effect on Listeria intracellular growth; also recorded: complete loss of activity
–	CCCC(NC(=O)/C(C#N)=C/c1cccnc1F)c1ccc(OCCN2CCOCC2)cc1 (centres unmarked) [Compound 7]	–	–	No effect on L.m. intracellular growth	–	no significant toxicity	effect on L.m. intracellular growth (in words) ([2]; listed as compound 7): no significant effect on Listeria intracellular growth; also recorded: complete loss of activity
–	CCC[C@H](NC(=O)/C=C/c1cccc(Br)n1)c1ccccc1 [Compound 8]	–	–	No effect on L.m. intracellular growth	–	no significant toxicity	effect on L.m. intracellular growth (in words) ([2]; listed as compound 8): no significant effect on Listeria intracellular growth; also recorded: no activity
–	CCC[C@H](NC(=O)/C(C#N)=C/c1cccc(Br)n1)c1ccccc1 [WP1130, reference compound]	–	69.9	Decrease L.m. intracellular growth	–	–	average decrease in MNV-1 titers compared to DMSO vehicle control [4]: 2.0 log; IC50 [5]: 6600 nM; solubility kinetic [6]: 3.2 µM (≈ 1.23 µg/mL); effect on Listeria growth in broth culture [7]: no effect
